Measured values from ChEMBL document CHEMBL1649540, “The novel CXCR4 antagonist KRH-3955 is an orally bioavailable and extremely potent inhibitor of human immunodeficiency virus type 1 infection: comparative studies with AMD3100” (Antimicrob Agents Chemother, 2009).
Active and inactive are the calls of the source. The rule behind the calls is not given here.

Key:
[1] = target: T1, C-X-C chemokine receptor type 4 (Homo sapiens, UniProt P61073); conditions: MOLT-4; 1000 nM
Description: Inhibition of Mab 12G5 binding to CXCR4 expressed in human MOLT4 cells at 1000 nM measured post drug washout by FACS analysis

[2] = target: T1, C-X-C chemokine receptor type 4; assay: Displacement of [125I]SDF-1alpha form CXCR4 expressed in CHO cells at 0.1 to 1000 nmol/L by scintillation counting; assay type: cell-based
[3] = test system: Human immunodeficiency virus 1; assay: Antiviral activity against HIV1 NL4-3 infected in human PBMC assessed as inhibition of viral p24 antigen production after 7 to 10 days by ELISA; assay type: functional, organism-based; conditions: Human immunodeficiency virus 1, NL4-3
[4] = test system: Human immunodeficiency virus 1; assay: Antiviral activity against multidrug resistant HIV1 HXB2 infected in HEK293 cells assessed as inhibition of viral replication after 2 days; assay type: functional, organism-based; conditions: Human immunodeficiency virus 1, HXB2, HEK293, 48 h
[5] = test system: Human immunodeficiency virus 1; assay: Antiviral activity against HIV1 NL4-3 infected in HEK293 cells assessed as inhibition of viral replication after 2 days; assay type: functional, organism-based; conditions: Human immunodeficiency virus 1, NL4-3, HEK293, 48 h
[6] = test system: C-X-C chemokine receptor type 4 (Homo sapiens), P61073 [D181A]; assay: Inhibition of Mab 12G5 binding to CXCR4 D181A mutant expressed in HEK293 cells; assay type: cell-based
[7] = test system: C-X-C chemokine receptor type 4 (Homo sapiens), P61073 [H281A]; assay: Inhibition of Mab 12G5 binding to CXCR4 H281A mutant expressed in HEK293 cells; assay type: cell-based
[8] = target: T1, C-X-C chemokine receptor type 4; conditions: MOLT-4; 1000 nM; remark: listed apart in the source
Description: Inhibition of Mab 12G5 binding to CXCR4 expressed in human MOLT4 cells at 1000 nM by FACS analysis

[9] = test system: Human immunodeficiency virus 1; assay: Antiviral activity against HIV1 R5 infected in human PBMC assessed as inhibition of viral p24 antigen production after 7 to 10 days by ELISA; assay type: functional, organism-based; conditions: Human immunodeficiency virus 1, R5
[10] = test system: Human immunodeficiency virus 1; assay: Antiviral activity against NNRTI-resistant HIV1 HXB2 infected in HEK293 cells assessed as inhibition of viral replication after 2 days; assay type: functional, organism-based; conditions: Human immunodeficiency virus 1, HXB2, HEK293, 48 h
[11] = test system: Human immunodeficiency virus 1; assay: Antiviral activity against HIV1 X4 infected in human PBMC assessed as inhibition of viral p24 antigen production after 7 to 10 days by ELISA; assay type: functional, organism-based; conditions: Human immunodeficiency virus 1, X4
[12] = test system: Human immunodeficiency virus 1; assay: Antiviral activity against HIV1 A018H infected in human PBMC assessed as inhibition of viral p24 antigen production after 7 to 10 days by ELISA; assay type: functional, organism-based; conditions: Human immunodeficiency virus 1, A018H
[13] = test system: Human immunodeficiency virus 1; assay: Antiviral activity against T20-resistant HIV1 NL4-3 infected in HEK293 cells assessed as inhibition of viral replication after 2 days; assay type: functional, organism-based; conditions: Human immunodeficiency virus 1, NL4-3, HEK293, 48 h
[14] = test system: Human immunodeficiency virus 1; assay: Antiviral activity against HIV1 89.6 infected in human PBMC assessed as inhibition of viral p24 antigen production after 7 to 10 days by ELISA; assay type: functional, organism-based; conditions: Human immunodeficiency virus 1, 89.6
[15] = test system: Human immunodeficiency virus 1; assay: Antiviral activity against PI-resistant HIV1 HXB2 infected in HEK293 cells assessed as inhibition of viral replication after 2 days; assay type: functional, organism-based; conditions: Human immunodeficiency virus 1, HXB2, HEK293, 48 h
[16] = test system: Human immunodeficiency virus 1; assay: Antiviral activity against HIV1 HXB2 infected in HEK293 cells assessed as inhibition of viral replication after 2 days; assay type: functional, organism-based; conditions: Human immunodeficiency virus 1, HXB2, HEK293, 48 h
[17] = test system: Human immunodeficiency virus 1; assay: Antiviral activity against HIV1 A018G infected in human PBMC assessed as inhibition of viral p24 antigen production after 7 to 10 days by ELISA; assay type: functional, organism-based; conditions: Human immunodeficiency virus 1, A018G
[18] = test system: C-X-C chemokine receptor type 4 (Homo sapiens), P61073 [V280A]; assay: Inhibition of Mab 12G5 binding to CXCR4 V280A mutant expressed in HEK293 cells; assay type: cell-based
[19] = test system: Human immunodeficiency virus 1; assay: Antiviral activity against NRTI-resistant HIV1 HXB2 infected in HEK293 cells assessed as inhibition of viral replication after 2 days; assay type: functional, organism-based; conditions: Human immunodeficiency virus 1, HXB2, HEK293, 48 h
[20] = test system: Human immunodeficiency virus 1; assay: Antiviral activity against HIV1 JRCSF infected in human PBMC assessed as inhibition of viral p24 antigen production after 7 to 10 days by ELISA; assay type: functional; conditions: Human immunodeficiency virus 1, JRCSF ISOLATE
[21] = test system: C-X-C chemokine receptor type 4 (Homo sapiens), P61073 [V112A]; assay: Inhibition of Mab 12G5 binding to CXCR4 V112A mutant expressed in HEK293 cells; assay type: cell-based
Chain of C-X-C chemokine receptor type 4 (Homo sapiens), P61073 [V112A] (P61073 whole entry V112A): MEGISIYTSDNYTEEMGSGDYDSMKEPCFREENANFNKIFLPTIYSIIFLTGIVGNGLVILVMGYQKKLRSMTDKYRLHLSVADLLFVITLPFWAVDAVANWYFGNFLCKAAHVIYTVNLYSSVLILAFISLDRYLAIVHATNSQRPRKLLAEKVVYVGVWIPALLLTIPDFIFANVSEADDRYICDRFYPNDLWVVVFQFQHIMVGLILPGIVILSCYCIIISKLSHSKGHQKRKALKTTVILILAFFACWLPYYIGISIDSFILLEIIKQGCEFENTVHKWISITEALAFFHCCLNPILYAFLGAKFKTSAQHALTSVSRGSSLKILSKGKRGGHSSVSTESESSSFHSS

T1 sequence (P61073 whole entry): as the sequence (P61073 whole entry V112A) above, with A112V counted along it
Chain of C-X-C chemokine receptor type 4 (Homo sapiens), P61073 [V280A] (P61073 whole entry V280A): as the sequence (P61073 whole entry V112A) above, with A112V, V280A counted along it
Chain of C-X-C chemokine receptor type 4 (Homo sapiens), P61073 [D181A] (P61073 whole entry D181A): as the sequence (P61073 whole entry V112A) above, with A112V, D181A counted along it
Chain of C-X-C chemokine receptor type 4 (Homo sapiens), P61073 [H281A] (P61073 whole entry H281A): as the sequence (P61073 whole entry V112A) above, with A112V, H281A counted along it

| Structure (SMILES) | EC50 [3] [nM] | EC50 [9] [nM] | EC50 [11] [nM] | EC50 [12] [nM] | EC50 [14] [nM] | EC50 [17] [nM] | EC50 [20] [nM] | other results |
| --- | --- | --- | --- | --- | --- | --- | --- | --- |
| c1cc(CN2CCCNCCNCCCNCC2)ccc1CN1CCCNCCNCCCNCC1 [PLERIXAFOR] | 41 | > 200 | 15 | 38 | 44 | 32 | > 200 | inhibition [1]: inactive; Activity [2]: inactive; IC50 [4]: 5.3 nM; IC50 [5]: 4.6 nM; IC90 [6]: 796 nM; IC90 [7]: 572 nM; inhibition [8]: Active; IC50 [10]: 7 nM; IC50 [13]: 2.3 nM; IC50 [15]: 9.2 nM; IC50 [16]: 6.2 nM; IC90 [18]: 821 nM; IC50 [19]: 9 nM; IC90 [21]: 821 nM |
| Cc1cn([C@H]2C[C@H](N=[N+]=[N-])[C@@H](CO)O2)c(=O)[nH]c1=O [ZIDOVUDINE] | 11 | 6.2 | 8 | 1.9 | 7.4 | 87000 | 0.96 | – |
| COC[C@@H](c1ccc(C(F)(F)F)cc1)N1CCN(C2(C)CCN(C(=O)c3c(C)ncnc3C)CC2)C[C@@H]1C [VICRIVIROC] | > 1000 | 1.2 | > 1000 | – | > 1000 | – | 0.37 | – |
| NCCCCN(Cc1nc2ccccc2[nH]1)[C@H]1CCCc2cccnc21 [MAVORIXAFOR] | 35 | > 200 | 15 | – | 55 | – | > 200 | – |
| CC(C)(C)NC(=O)[C@@H]1C[C@@H]2CCCC[C@@H]2CN1C[C@@H](O)[C@H](Cc1ccccc1)NC(=O)[C@H](CC(N)=O)NC(=O)c1ccc2ccccc2n1 | 9 | 8 | 29 | – | 9.9 | – | 2.6 | – |
